Data set [1] is classed as physicochemical. The text has this:
(§1) Milnacipran can be easily processed in solvent state with conventional binder such as Povidone. However, in aqueous state the milnacipran has some unusual properties which present difficulties in drug layering approach. […] In exemplary embodiments, the PEG functions as a co-binder, anti-tacking agent, plasticizer to HPMC and as an eraser to the drug's deliquescent property.

The nature of data set [2]: Conversion to cyclic degradation product F1612 in 0.1 M pH 9.0 buffer at 50° C. The data set is classed as physicochemical. The conditions noted are these: 50° C. and pH 9.0. The procedure:
Milnacipran hydrochloride was exposed to 0.1 M pH 9.0 buffer (glycine-NaOH) at 50° C. in a closed glass flask for several days.

A short description of a further data set: Deliquescence. The format is physicochemical. The note with it: room temperature.
Excerpt: as §1

For another data set, the system named is uptake of dopamine. The conditions noted are these: cited from earlier work.

Structures are written as SMILES.

`CCN(CC)C(=O)C1(c2ccccc2)CC1CN` (stereo not shown) [Milnacipran, milnacipran]: the solubility in water result in data set [1] is recorded as “highly soluble”. Moreover, the “formation of the cyclic degradation product” value in data set [2] is “rapid formation”. Besides, the “deliquescent at RH” value in the data set “Deliquescence” is recorded as 75-80 % RH. For the same compound, the “effect on the uptake of dopamine” value in the data set on uptake of dopamine is “does not affect”.

The values are drawn from patent publication US20100286260A1, “MILNACIPRAN FORMULATIONS” (priority 2009, published 2010).
